# Source: BindingDB's records for doi:10.1021/jm00006a025 (Chungnam National University, 1995)
# Biological target: T1, DNA topoisomerase 1 (Homo sapiens, UniProt P11387)
# T1 sequence (P11387 whole entry): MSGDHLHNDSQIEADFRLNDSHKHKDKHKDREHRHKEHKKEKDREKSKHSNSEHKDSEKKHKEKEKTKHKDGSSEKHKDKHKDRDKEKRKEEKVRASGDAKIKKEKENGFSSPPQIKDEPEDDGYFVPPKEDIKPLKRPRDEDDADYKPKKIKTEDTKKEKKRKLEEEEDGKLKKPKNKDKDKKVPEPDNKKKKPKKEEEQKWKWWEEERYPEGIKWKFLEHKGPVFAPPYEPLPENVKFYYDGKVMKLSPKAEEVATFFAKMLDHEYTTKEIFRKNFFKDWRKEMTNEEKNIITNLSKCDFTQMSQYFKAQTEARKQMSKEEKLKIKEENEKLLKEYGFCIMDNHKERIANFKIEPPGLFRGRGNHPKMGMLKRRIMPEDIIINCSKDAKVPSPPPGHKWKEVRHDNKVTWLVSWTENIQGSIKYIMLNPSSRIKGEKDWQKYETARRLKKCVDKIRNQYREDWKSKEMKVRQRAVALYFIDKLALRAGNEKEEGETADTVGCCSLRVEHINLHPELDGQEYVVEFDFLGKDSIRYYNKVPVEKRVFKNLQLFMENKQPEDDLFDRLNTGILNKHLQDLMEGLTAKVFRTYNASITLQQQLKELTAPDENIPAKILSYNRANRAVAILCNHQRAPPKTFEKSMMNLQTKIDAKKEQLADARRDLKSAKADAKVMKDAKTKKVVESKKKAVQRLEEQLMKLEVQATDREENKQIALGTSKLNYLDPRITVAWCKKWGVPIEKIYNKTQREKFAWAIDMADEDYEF
# Test: Inhibitory activity against DNA topoisomerase-1 obtained from Hela cells
row,Compound,IC50 [µM]
1,"CCCCCCCCC(=O)OC(=CC=C(C)C)c1cc(O)c2c(O)ccc(O)c2c1O [Nonanoic acid (R)-1-(5,8-dihydroxy-1,4-dioxo-1,4-dihydro-naphthalen-2-yl)-4-methyl-pent-3-enyl ester]",> 625
2,CC(C)=CC=C(OC(=O)C(c1ccccc1)c1ccccc1)c1cc(O)c2c(O)ccc(O)c2c1O,> 625
3,"CCCCCCCCCC(=O)OC(=CC=C(C)C)c1cc(O)c2c(O)ccc(O)c2c1O [Decanoic acid (R)-1-(5,8-dihydroxy-1,4-dioxo-1,4-dihydro-naphthalen-2-yl)-4-methyl-pent-3-enyl ester]",> 625
4,"CCCCCCCCCCCCCCCC(=O)OC(=CC=C(C)C)c1cc(O)c2c(O)ccc(O)c2c1O [Hexadecanoic acid (R)-1-(5,8-dihydroxy-1,4-dioxo-1,4-dihydro-naphthalen-2-yl)-4-methyl-pent-3-enyl ester]",> 625
5,"CCCCC/C=C/C/C=C/C/C=C/CCCCC(=O)OC(=CC=C(C)C)c1cc(O)c2c(O)ccc(O)c2c1O [(6E,9E,12E)-Octadeca-6,9,12-trienoic acid (R)-1-(5,8-dihydroxy-1,4-dioxo-1,4-dihydro-naphthalen-2-yl)-4-methyl-pent-3-enyl ester]",> 625
6,"CCCCCCCCCCCCCCCCCC(=O)OC(=CC=C(C)C)c1cc(O)c2c(O)ccc(O)c2c1O [Octadecanoic acid (R)-1-(5,8-dihydroxy-1,4-dioxo-1,4-dihydro-naphthalen-2-yl)-4-methyl-pent-3-enyl ester]",> 625

# Now from value to compound:
row,IC50 [µM],Compound
1,> 625,"CC(C)=CC=C(OC(=O)C=C(C)C=CC=C(C)/C=C/C1=C(C)CCCC1(C)C)c1cc(O)c2c(O)ccc(O)c2c1O [(2Z,4E,6E,8E)-3,7-Dimethyl-9-(2,6,6-trimethyl-cyclohex-1-enyl)-nona-2,4,6,8-tetraenoic acid (R)-1-(5,8-dihydroxy-1,4-dioxo-1,4-dihydro-naphthalen-2-yl)-4-methyl-pent-3-enyl ester]"
2,> 625,"CCCCC/C=C/C/C=C/CCCCCCCC(=O)OC(=CC=C(C)C)c1cc(O)c2c(O)ccc(O)c2c1O [(9E,12E)-Octadeca-9,12-dienoic acid (R)-1-(5,8-dihydroxy-1,4-dioxo-1,4-dihydro-naphthalen-2-yl)-4-methyl-pent-3-enyl ester]"
3,> 625,"CCCCCCCC/C=C/CCCCCCCC(=O)OC(=CC=C(C)C)c1cc(O)c2c(O)ccc(O)c2c1O [(E)-Octadec-9-enoic acid (R)-1-(5,8-dihydroxy-1,4-dioxo-1,4-dihydro-naphthalen-2-yl)-4-methyl-pent-3-enyl ester]"
4,153,"CC/C=C/CC(=O)OC(=CC=C(C)C)c1cc(O)c2c(O)ccc(O)c2c1O [(E)-Hex-3-enoic acid (R)-1-(5,8-dihydroxy-1,4-dioxo-1,4-dihydro-naphthalen-2-yl)-4-methyl-pent-3-enyl ester]"
5,153,"CCC/C=C/C(=O)OC(=CC=C(C)C)c1cc(O)c2c(O)ccc(O)c2c1O [(E)-Hex-2-enoic acid (R)-1-(5,8-dihydroxy-1,4-dioxo-1,4-dihydro-naphthalen-2-yl)-4-methyl-pent-3-enyl ester]"
6,> 625,"CCCCCCCCCCCC(=O)OC(=CC=C(C)C)c1cc(O)c2c(O)ccc(O)c2c1O [Dodecanoic acid (R)-1-(5,8-dihydroxy-1,4-dioxo-1,4-dihydro-naphthalen-2-yl)-4-methyl-pent-3-enyl ester]"
7,> 625,"CCCCCCCC(=O)OC(=CC=C(C)C)c1cc(O)c2c(O)ccc(O)c2c1O [Octanoic acid (R)-1-(5,8-dihydroxy-1,4-dioxo-1,4-dihydro-naphthalen-2-yl)-4-methyl-pent-3-enyl ester]"
8,153,"CC(C)=CC=C(OC(=O)c1ccccc1)c1cc(O)c2c(O)ccc(O)c2c1O [(R)-1-(5,8-dihydroxy-1,4-dioxo-1,4-dihydronaphthalen-2-yl)-4-methylpent-3-enyl benzoate]"
